Assay results published in ChEMBL document CHEMBL4382259, “Synthesis of novel guttiferone E and xanthochymol derivatives with cytotoxicities by inducing cell apoptosis and arresting the cell cycle phase” (Eur J Med Chem, 2019).
Active and inactive are the calls of the source. The calls are words filed in the database; no cut-off is given here.

What was measured:
HEL [1] = assay: Antiproliferative activity against HEL cells after 72 hrs by MTT assay; format: functional, cell-based; details: Homo sapiens
A549 = assay: Antiproliferative activity against human A549 cells after 72 hrs by MTT assay; format: functional, cell-based; details: A549, 72 h
HeLa = assay: Antiproliferative activity against human HeLa cells after 72 hrs by MTT assay; format: functional, cell-based
K562 = assay: Antiproliferative activity against human K562 cells after 72 hrs by MTT assay; format: functional, cell-based; details: K562, 72 h
MCF7 = assay: Antiproliferative activity against human MCF7 cells after 72 hrs by MTT assay; format: functional, cell-based; details: MCF7, 72 h
HEL [2] = assay: Induction of apoptosis in HEL cells assessed as necrotic cells at 2.5 uM after 24 hrs by Annexin V-FITC/propidium iodide staining based flow cytometry (reference value: 0.2%); format: functional, Homo sapiens
HEL [3] = assay: Induction of morphological changes in HEL cells assessed as cell shrinkage at 5 uM after 48 hrs by microscopic analysis; format: functional, cell-based; details: Homo sapiens
HEL [4] = assay: Down regulation of Bcl2 expression in HEL cells after 24 hrs by Western blot analysis; format: functional, cell-based; details: Homo sapiens
HEL [5] = assay: Induction of apoptosis in HEL cells assessed as late apoptotic cells at 5 uM after 24 hrs by Annexin V-FITC/propidium iodide staining based flow cytometry (reference value: 1.2%); format: functional, Homo sapiens
HEL [6] = assay: Up regulation of Bax expression in HEL cells after 24 hrs by Western blot analysis; format: functional, cell-based; details: Homo sapiens
HEL [7] = assay: Induction of apoptosis in HEL cells assessed as early apoptotic cells at 2.5 uM after 48 hrs by Annexin V-FITC/propidium iodide staining based flow cytometry (reference value: 8%); format: functional, Homo sapiens
HEL [8] = assay: Induction of apoptosis in HEL cells assessed as late apoptotic cells at 2.5 uM after 48 hrs by Annexin V-FITC/propidium iodide staining based flow cytometry (reference value: 3.3%); format: functional, Homo sapiens
HEL [9] = assay: Induction of cell death in HEL cells at 10 uM after 48 hrs by microscopic analysis; format: functional, cell-based; details: Homo sapiens
HEL [10] = assay: Induction of apoptosis in HEL cells assessed as necrotic cells at 5 uM after 48 hrs by Annexin V-FITC/propidium iodide staining based flow cytometry (reference value: 0.5%); format: functional, Homo sapiens
HEL [11] = assay: Induction of apoptosis in HEL cells assessed as late apoptotic cells at 10 uM after 48 hrs by Annexin V-FITC/propidium iodide staining based flow cytometry (reference value: 3.3%); format: functional, Homo sapiens
HEL [12] = assay: Induction of apoptosis in HEL cells assessed as late apoptotic cells at 5 uM after 48 hrs by Annexin V-FITC/propidium iodide staining based flow cytometry (reference value: 3.3%); format: functional, Homo sapiens
HEL [13] = assay: Induction of apoptosis in HEL cells assessed as early apoptotic cells at 5 uM after 24 hrs by Annexin V-FITC/propidium iodide staining based flow cytometry (reference value: 9.9%); format: functional, Homo sapiens
HEL [14] = assay: Induction of apoptosis in HEL cells assessed as viable cells at 5 uM after 24 hrs by Annexin V-FITC/propidium iodide staining based flow cytometry (reference value: 88.6%); format: functional; details: Homo sapiens, read-out: Activity
HEL [15] = assay: Induction of apoptosis in HEL cells assessed as necrotic cells at 2.5 uM after 48 hrs by Annexin V-FITC/propidium iodide staining based flow cytometry (reference value: 0.5%); format: functional, Homo sapiens
HEL [16] = assay: Induction of apoptosis in HEL cells assessed as viable cells at 5 uM after 48 hrs by Annexin V-FITC/propidium iodide staining based flow cytometry (reference value: 88.3%); format: functional; details: Homo sapiens, read-out: Activity
HEL [17] = assay: Down regulation of full-length PARP1 expression in HEL cells at 2.5 to 10 uM after 24 hrs by Western blot analysis; format: functional, cell-based; details: Homo sapiens
HEL [18] = assay: Induction of apoptosis in HEL cells assessed as late apoptotic cells at 2.5 uM after 24 hrs by Annexin V-FITC/propidium iodide staining based flow cytometry (reference value: 1.2%); format: functional, Homo sapiens
HEL [19] = assay: Cell cycle arrest in HEL cells assessed as accumulation at G0/G1 phase at 5 uM after 48 hrs propidium iodide staining based flow cytometry (reference value: 37.72%); format: functional, Homo sapiens
HEL [20] = assay: Induction of apoptosis in HEL cells assessed as early apoptotic cells at 10 uM after 24 hrs by Annexin V-FITC/propidium iodide staining based flow cytometry (reference value: 9.9%); format: functional, Homo sapiens
HEL [21] = assay: Induction of apoptosis in HEL cells assessed as late apoptotic cells at 10 uM after 24 hrs by Annexin V-FITC/propidium iodide staining based flow cytometry (reference value: 1.2%); format: functional, Homo sapiens
HEL [22] = assay: Induction of apoptosis in HEL cells assessed as viable cells at 10 uM after 48 hrs by Annexin V-FITC/propidium iodide staining based flow cytometry (reference value: 88.3%); format: functional; details: Homo sapiens, read-out: Activity
HEL [23] = assay: Induction of apoptosis in HEL cells assessed as necrotic cells at 10 uM after 48 hrs by Annexin V-FITC/propidium iodide staining based flow cytometry (reference value: 0.5%); format: functional, Homo sapiens
HEL [24] = assay: Up regulation of cleaved caspase3 expression in HEL cells at 2.5 to 10 uM after 24 hrs by Western blot analysis; format: functional, cell-based; details: Homo sapiens
HEL [25] = assay: Induction of apoptosis in HEL cells assessed as viable cells at 2.5 uM after 48 hrs by Annexin V-FITC/propidium iodide staining based flow cytometry (reference value: 88.3%); format: functional; details: Homo sapiens, read-out: Activity
HEL [26] = assay: Down regulation of cyclin D1 expression in HEL cells at 2.5 to 10 uM after 24 hrs by Western blot analysis; format: functional, cell-based; details: Homo sapiens
HEL [27] = assay: Induction of apoptosis in HEL cells assessed as necrotic cells at 10 uM after 24 hrs by Annexin V-FITC/propidium iodide staining based flow cytometry (reference value: 0.2%); format: functional, Homo sapiens
HEL [28] = assay: Induction of morphological changes in HEL cells assessed as cell fragmentation at 5 uM after 48 hrs by microscopic analysis; format: functional, cell-based; details: Homo sapiens
HEL [29] = assay: Induction of morphological changes in HEL cells at 2.5 uM after 48 hrs by microscopic analysis; format: functional, cell-based; details: Homo sapiens
HEL [30] = assay: Cell cycle arrest in HEL cells assessed as accumulation at S phase at 5 uM after 48 hrs propidium iodide staining based flow cytometry (reference value: 45.65%); format: functional, Homo sapiens
HEL [31] = assay: Induction of apoptosis in HEL cells assessed as early apoptotic cells at 5 uM after 48 hrs by Annexin V-FITC/propidium iodide staining based flow cytometry (reference value: 8%); format: functional, Homo sapiens
HEL [32] = assay: Induction of apoptosis in HEL cells assessed as early apoptotic cells at 2.5 uM after 24 hrs by Annexin V-FITC/propidium iodide staining based flow cytometry (reference value: 9.9%); format: functional, Homo sapiens
HEL [33] = assay: Cell cycle arrest in HEL cells assessed as accumulation at G2/M phase at 5 uM after 48 hrs propidium iodide staining based flow cytometry (reference value: 14.33%); format: functional, Homo sapiens
HEL [34] = assay: Induction of apoptosis in HEL cells assessed as early apoptotic cells at 10 uM after 48 hrs by Annexin V-FITC/propidium iodide staining based flow cytometry (reference value: 8%); format: functional, Homo sapiens
HEL [35] = assay: Induction of apoptosis in HEL cells assessed as viable cells at 10 uM after 24 hrs by Annexin V-FITC/propidium iodide staining based flow cytometry (reference value: 88.6%); format: functional; details: Homo sapiens, read-out: Activity
HEL [36] = assay: Induction of apoptosis in HEL cells assessed as viable cells at 2.5 uM after 24 hrs by Annexin V-FITC/propidium iodide staining based flow cytometry (reference value: 88.6%); format: functional; details: Homo sapiens, read-out: Activity
HEL [37] = assay: Induction of apoptosis in HEL cells assessed as necrotic cells at 5 uM after 24 hrs by Annexin V-FITC/propidium iodide staining based flow cytometry (reference value: 0.2%); format: functional, Homo sapiens

## C#CCOc1ccc(C(=O)C2=C3OC(C)(C)[C@@H](CC=C(C)C)C[C@@]34C[C@@H](CC=C(C)C)C(C)(C)[C@@](CC=C(C)C)(C2=O)C4=O)cc1OCC#C
HEL [1]
  IC50: 8.89 µM
A549
  IC50: > 20 µM
HeLa
  IC50: > 20 µM
K562
  IC50: 17.6 µM
MCF7
  IC50: > 20 µM

## CC(C)=CC[C@H]1C[C@@]23C[C@@H](CC=C(C)C)C(C)(C)[C@@](CC=C(C)C)(C(=O)C(C(=O)c4ccc(OCCCCCN5CCOCC5)c(OCCCCCN5CCOCC5)c4)=C2OC1(C)C)C3=O
HEL [1]
  IC50: > 20 µM
A549
  IC50: > 20 µM
HeLa
  IC50: 5 µM
K562
  IC50: > 20 µM
MCF7
  IC50: > 20 µM

## CC(C)=CC[C@H]1C[C@@]23C[C@@H](CC=C(C)C)C(C)(C)[C@@](CC=C(C)C)(C(=O)C(C(=O)c4ccc(OC(=O)CCCCCBr)c(OC(=O)CCCCCBr)c4)=C2OC1(C)C)C3=O
HEL [1]
  IC50: > 20 µM
A549
  IC50: > 20 µM
HeLa
  IC50: > 20 µM
K562
  IC50: > 20 µM
MCF7
  IC50: > 20 µM

## CC(C)=CC[C@H]1C[C@@]23C[C@@H](CC=C(C)C)C(C)(C)[C@@](CC=C(C)C)(C(=O)C(C(=O)c4ccc(O)c(OS(=O)(=O)c5ccc(C)cc5)c4)=C2OC1(C)C)C3=O
HEL [1]
  IC50: 4.66 µM
A549
  IC50: > 20 µM
HeLa
  IC50: 18.4 µM
K562
  IC50: > 20 µM
MCF7
  IC50: 15.8 µM

## CC(C)=CC[C@H]1C[C@]23C[C@@H](CC=C(C)C)C(C)(C)[C@H]4CCC(C)(C)O[C@]42OC(=O)C(C(=O)c2ccc(O)c(O)c2)=C3OC1(C)C
HEL [2]
  Activity: 0.4%
HEL [3]
  Activity: Active
HEL [4]
  Activity: Dose-dependent effect
HEL [5]
  Activity: 3.3%
HEL [6]
  Activity: Dose-dependent effect
HEL [7]
  Activity: 7.2%
HEL [8]
  Activity: 6.4%
HEL [9]
  Activity: Active
HEL [1]
  IC50: 4.79 µM
HEL [10]
  Activity: 0.6%
HEL [11]
  Activity: 15.9%
HEL [12]
  Activity: 5.8%
A549
  IC50: > 20 µM
HEL [13]
  Activity: 15.3%
HEL [14]
  viability at 5 µM: 80.9%
HEL [15]
  Activity: 1.6%
HEL [16]
  viability at 5 µM: 72.6%
HeLa
  IC50: > 20 µM
HEL [17]
  Activity: Active
HEL [18]
  Activity: 2.3%
HEL [19]
  Activity: 59.29%
HEL [20]
  Activity: 34.6%
HEL [21]
  Activity: 3%
K562
  IC50: 7.69 µM
HEL [22]
  viability at 10 µM: 49.2%
HEL [23]
  Activity: 2.4%
MCF7
  IC50: 13.5 µM
HEL [24]
  Activity: Active
HEL [25]
  viability at 2.5 µM: 84.8%
HEL [26]
  Activity: Active
HEL [27]
  Activity: 0.8%
HEL [28]
  Activity: Active
HEL [29]
  Activity: Active
HEL [30]
  Activity: 28.81%
HEL [31]
  Activity: 21%
HEL [32]
  Activity: 10.6%
HEL [33]
  Activity: 10.76%
HEL [34]
  Activity: 32.5%
HEL [35]
  viability at 10 µM: 61.6%
HEL [36]
  viability at 2.5 µM: 86.6%
HEL [37]
  Activity: 0.4%

## C=C(C)[C@@H](CC=C(C)C)C[C@@]12C[C@@H](CC=C(C)C)C(C)(C)[C@@](CC=C(C)C)(C(=O)c3c1oc1cc(O)c(O)cc1c3=O)C2=O
HEL [1]
  IC50: 4.5 µM
A549
  IC50: > 20 µM
HeLa
  IC50: > 20 µM
K562
  IC50: 10.4 µM
MCF7
  IC50: > 20 µM

## CC(C)=CC[C@H]1C[C@@]23C[C@@H](CC=C(C)C)C(C)(C)[C@@](CC=C(C)C)(C(=O)C(C(=O)c4ccc(OCCCCCBr)c(O)c4)=C2OC1(C)C)C3=O
HEL [1]
  IC50: > 20 µM
A549
  IC50: > 20 µM
HeLa
  IC50: 15.5 µM
K562
  IC50: > 20 µM
MCF7
  IC50: 9.29 µM

## CC(C)=CC[C@H]1C[C@]23C[C@@H](CC=C(C)C)C(C)(C)[C@H]4CCC(C)(C)O[C@]42OC(=O)C(C(=O)c2ccc(OC(=O)c4ccccc4)c(OC(=O)c4ccccc4)c2)=C3OC1(C)C
HEL [1]
  IC50: > 20 µM
A549
  IC50: > 20 µM
HeLa
  IC50: > 20 µM
K562
  IC50: > 20 µM
MCF7
  IC50: > 20 µM

## CC(C)=CC[C@H]1C[C@@]23C[C@@H](CC=C(C)C)C(C)(C)[C@@](CC=C(C)C)(C(=O)C(C(=O)c4ccc(O)c(OC(=O)CCCCCBr)c4)=C2OC1(C)C)C3=O
HEL [1]
  IC50: 9.62 µM
A549
  IC50: > 20 µM
HeLa
  IC50: > 20 µM
K562
  IC50: 14.5 µM
MCF7
  IC50: > 20 µM
